{"source": "patent US6468782B1", "about": "“Methods of preserving prokaryotic cells and compositions obtained thereby” (priority 1996, dated 2002)", "key": {"E. coli 9484": {"system": "E. coli 9484", "assay": "Viable cell recovery (plate assay, CFU) of trehalose-induced E. coli Q-T4 dried with different excipients and stored at 37° C.", "type": "cell-based", "description": "Viability was determined immediately after completion and at various times during storage at 37° C. using a plate assay. For the plate assay, serial 10-fold dilutions of cells were set up by using minimal medium minus a carbon source as a sterile diluent.\nThirty μl of the cell suspension from the sixth dilution tube was added to each of 3 LB (Luria-Bertuni) plates, using a sterile glass spreader to spread the culture over the entire surface of the plate. The plates were incubated overnight at 37° C., and the colonies counted.\nE. coli strain 9894 was inoculated in 100 ml batch cultures of minimal medium related to M9 but with high (0.5M) salt content as described in Example 2. Cells were grown for 22 hours at 37° C. in a shaking incubator (early stationary phase). Samples of cultures were removed for trehalose determination (3×1 ml) and protein estimation by the Bradford assay (3×10 ml; Bio-Rad). Trehalose concentration was expressed as μmol (mg protein)^−1.\nTwo 30 ml aliquots from each flask were harvested by centrifugation at 10,000 rpm for 10 minutes. Cell pellets were resuspended in 8 ml of 25-45% sugar, 0.1% CMC (sodium carboxymethyl cellulose; Blanose 7HF; Aqualon). The suspensions were then pooled to a total volume of 16 ml with a typical cell density of 4-8×10^9 CFU/ml and 300 μl aliquots dispensed into 3 ml pharmaceutical vials.\nBacteria were dried under vacuum without freezing using the following protocol: vacuum, 30 mT; initial shelf temperature 40° C. for 16 hours, followed by ramping to 80° C. at a rate of 2.5° C./min in increments of 2° C. with a holding time of 12 minutes per increment. Foaming occurred between 60-120 minutes of initial drying.\nViability was determined immediately before and after the completion of the drying procedure and at various times during storage at 37° C. using a plate assay as described in Example 2. The residual moisture content and the glass transition temperature were also determined."}, "E. coli": {"system": "E. coli", "assay": "Intracellular trehalose production in E. coli under osmotic shock with different salts", "type": "cell-based", "description": "E. coli NCIMB strain 9484 was cultured in Evans medium (pH 7.0; Table 1) containing one of a variety of agents for increasing osmotic pressure. After overnight incubation at 37° C. in initial Evans medium, a 4 ml culture of E. coli grown in Evans medium under nitrogen limitation was used to inoculate a 200 ml culture of Evans medium osmotic shock.\nIntracellular trehalose concentration was measured as described below at various times after the initiation of osmotic shock.\nIntracellular concentration of trehalose was determined using high pressure liquid chromatography (HPLC) as follows. Trehalose standards were prepared by first making 10 mM trehalose in 70% ethanol, followed by 10-fold serial dilution from 10 mM to 10 nM using 70% ethanol as diluent. […]\nCell samples were prepared for analysis by disrupting the cell wall by sonication (any other method such as mortar and pestle, osmotic lysis, beads can be used) coupled with the preferential solubilization of trehalose in 70% ethanol, followed by removing triglycerides by chloroform extraction. […] The pellet volume was determined by measuring the relative increase in the initial volume following resuspension of the cells. […]\nQuantitation of trehalose was achieved by HPLC (Beckman Instruments), using a Dionex CarboPac PA 100 analytical column, with a Dionex ED40 pulsed amperometric electrochemical detector. […]"}}, "note": "Like-named read-outs stand apart in the source and are kept apart here."}
{"compound": "OC[C@@H](O)[C@@H](O[C@@H]1O[C@H](CO)[C@H](O)[C@H](O)[C@H]1O)[C@H](O)[C@@H](O)CO", "note": "[Lactitol, 4-O-β-D-galactopyranosyl-D-glucitol]", "values": [{"measurement": "% Viable Cell Recovery after storage at 37° C., Day 0", "setting": "E. coli 9484; E. coli, 0 day", "value": 42, "unit": "%"}, {"measurement": "% Viable Cell Recovery after storage at 37° C., Week 3", "setting": "E. coli 9484; E. coli, 3 weeks", "value": 36, "unit": "%"}, {"measurement": "% Viable Cell Recovery after storage at 37° C., Week 6", "setting": "E. coli 9484; E. coli, 6 weeks", "value": 34, "unit": "%"}]}
{"compound": "OC[C@H]1O[C@H](O[C@H]2O[C@H](CO)[C@@H](O)[C@H](O)[C@H]2O)[C@H](O)[C@@H](O)[C@@H]1O", "note": "[Trehalose, α-D-glucopyranosyl-α-D-glucopyranoside]", "values": [{"measurement": "% Viable Cell Recovery after storage at 37° C., Week 3", "setting": "E. coli 9484; 3 weeks storage at 37° C., 25-45% sugar, 0.1% CMC", "value": 52, "unit": "%"}, {"measurement": "% Viable Cell Recovery after storage at 37° C., Week 6", "setting": "E. coli 9484; 6 weeks storage at 37° C., 25-45% sugar, 0.1% CMC", "value": 45, "unit": "%"}, {"measurement": "% Viable Cell Recovery after storage at 37° C., Day 0", "setting": "E. coli 9484; immediately after completion of Q-T4 drying, 25-45% sugar, 0.1% CMC", "value": 36, "unit": "%"}]}
{"compound": "N.N.O=S(=O)(O)O", "note": "[ammonium sulfate]", "values": [{"measurement": "amount of intracellular trehalose concentration stimulated, relative to NaCl, CaCl2 or KCl", "setting": "E. coli", "value": "about half"}]}
{"compound": "Palatinit", "values": [{"measurement": "% Viable Cell Recovery after storage at 37° C., Day 0", "setting": "E. coli 9484", "value": 49, "unit": "%"}, {"measurement": "% Viable Cell Recovery after storage at 37° C., Week 3", "setting": "E. coli 9484", "value": 49, "unit": "%"}, {"measurement": "% Viable Cell Recovery after storage at 37° C., Week 6", "setting": "E. coli 9484", "value": 51, "unit": "%"}]}
